{
  "source": "patent US20140018431A1",
  "about": "(priority 2007, published 2014)",
  "key": {"airway smooth muscle": {"tested_on": "airway smooth muscle", "conditions": "literature (Belvisi, 1998); cited from earlier work"}, "[1]": {"assay_type": "in vivo, human", "conditions": "patients with PAH, 12-week trial", "experimental": "The effect of treprostinil (in the form of Remodulin or inhaled treprostinil) on patients is analyzed using the 6-minute walk test with Borg dyspnea score, a standard assessment of exercise capacity and breathlessness in patients with lung disease. See Guyatt, G. Sullivan, M. et al. (Canada Medical Assoc. J. Vol. 132, 1985). The Six-Minute Walk corresponds closely to the demands of everyday activity and is a safe and simple measurement of functional exercise capacity for clinical trials in patients.\nThe area used for the Six-Minute Walk test should be pre-measured at a minimum of 108 feet (33 meters) in length and at least 6 to 10 feet (2 to 3 meters) in width. The length should be marked with half-yard (0.5 meter) gradations. The area should be well ventilated with air temperature controlled at 20 to 23° C. ([…].).\nThe tester may be at the starting end of the corridor or at the midpoint of the corridor with a stop-watch. Intermittent rest periods are allowed if the patient can no longer continue. If the patient needs to rest briefly, he/she may stand or sit and then begin again when he/she is sufficiently rested but the clock will continue to run. At the end of six minutes, the tester will call “stop” while simultaneously stopping the watch and then measure the distance walked. The Borg Dyspnea Rating is then administered.\nNo other instruction or encouragement are given during the test. Eye contact with the patient should be avoided during the test. Following the walk, the person administering the test obtains a rating of dyspnea using the Borg Scale. The person uses the following dialogue:\n“I would like to use the following scale to indicate the maximal shortness of breath you had during the walk test (indicate the Borg Scale). […]"}, "Ang-2 (angiopoetin-2)": {"tested_on": "Ang-2 (angiopoetin-2)", "assay": "Serum Ang-2 biomarker, patients with PAH, 12 weeks of treatment", "assay_type": "in vivo, human", "conditions": "treatment for 12 weeks", "experimental": "(§1) In addition, treatment with treprostinil is shown to have positive outcome in the six minute walk test described above.\n(§2) 44 patients with PAH received study drug (Remodulin or placebo). 30 patients received Remodulin and 14 received placebo. A 12-week trial was conducted. The mean dose of Remodulin received was 72.5 ng/kg/min at Week 12 (compared to 80.0 ng/kg/min placebo-equivalent). Remodulin produced an 93.0 meter median improvement in the six-minute walk compared to placebo, Hodges-Lehmann estimate, with a 95% CI of 7.0 to 187.0 (p=0.0077) from nonparametric ANCOVA.\n(§3) Baseline patients with PAH appeared to have higher-than-normal levels of MMP-9, Ang-2, VEG-F, and PDGF (matrix metalloproteinase 9, angiopoetin-2, vascular endothelium-derived growth factor, and platelet-derived growth factor, respectively)."}, "[2]": {"tested_on": "VEG-F (vascular endothelium-derived growth factor)", "assay": "Serum VEG-F biomarker, patients with PAH, 12 weeks of treatment", "assay_type": "in vivo, human", "conditions": "treatment for 12 weeks", "experimental": "as §1, §2, §3"}, "[3]": {"tested_on": "PDGF (platelet-derived growth factor)", "assay": "PDGF biomarker, patients with PAH, 12 weeks of treatment", "assay_type": "in vivo, human", "conditions": "treatment for 12 weeks", "experimental": "as §1, §2, §3"}, "[4]": {"tested_on": "MMP-9 (matrix metalloproteinase 9)", "assay": "MMP-9 biomarker, patients with PAH, 12 weeks of treatment", "assay_type": "in vivo, human", "conditions": "treatment for 12 weeks", "experimental": "as §1, §2, §3\nFurther, there was a statistically significant correlation between the degree of decrease in Ang-2 and the degree of improvement in the six-minute walk test."}, "[5]": {"tested_on": "lung myeloid dendritic cells", "conditions": "literature (Idzko, 2007), cited from earlier work"}},
  "data": [
    {"smiles": "CCCCC[C@H](O)/C=C/[C@@H]1[C@H]2C/C(=C/CCCC(=O)O)O[C@H]2C[C@H]1O", "note": "[PGI2]", "values": [
      {"measurement": "effect on airway smooth muscle proliferation", "setting": "airway smooth muscle", "result": "antiproliferative effect"}
    ]},
    {"smiles": "CCCCC[C@H](O)CC[C@@H]1[C@H]2Cc3cccc(OCC(=O)[O-])c3C[C@H]2C[C@H]1O.[Na+]", "note": "[Remodulin]", "values": [
      {"measurement": "median improvement in the six-minute walk compared to placebo, Hodges-Lehmann estimate", "setting": "[1]; mean dose 72.5 ng/kg/min at Week 12, 95% CI of 7.0 to 187.0, p=0.0077, nonparametric ANCOVA", "result": 93.0, "unit": "meter"},
      {"measurement": "Borg Dyspnea score, median improvement over placebo", "setting": "[1]; p=0.23", "result": 2.0},
      {"measurement": "combined ranking of 6MW/Borg Score Index", "setting": "[1]; vs placebo, p=0.0023", "result": "significantly improved"},
      {"measurement": "serum Ang-2", "setting": "Ang-2 (angiopoetin-2)", "result": "significantly decreased"},
      {"measurement": "serum VEG-F", "setting": "[2]", "result": "significantly decreased"},
      {"measurement": "PDGF", "setting": "[3]", "result": "strong trend toward decreased"},
      {"measurement": "degree of change in MMP-9", "setting": "[4]", "result": "not significant"}
    ]},
    {"smiles": "CC#CCC(C)[C@H](O)/C=C/[C@@H]1[C@H]2C/C(=C/CCCC(=O)O)C[C@H]2C[C@H]1O", "note": "(stereo partly shown) [iloprost]", "values": [
      {"measurement": "anti-inflammatory effects in a mouse model of asthma", "setting": "[5]", "result": "anti-inflammatory effects"},
      {"measurement": "induction of allergen-specific Th2 response in mediastinal lymph nodes", "setting": "[5]; mouse model of asthma", "result": "abolishing the induction"}
    ]}
  ]
}
